Experimental findings from patent EP4813463A2, “TYK2 INHIBITORS AND COMPOSITIONS AND METHODS THEREOF” (Lynk Pharmaceuticals Co. Ltd., priority 2023, dated 2024) are described below.

One series has as its target T1, TYK2-JH2 domain (Homo sapiens, UniProt P29597).
T1 construct: JAK1-JH2 domain or TYK2-JH2 domain enzyme in assay buffer
The experiment in a line: Binding activity test for JH2 domain of TYK2 (Tb-antibody/tracer FRET). The settings on record: for pIC50: JH2 domain enzyme, 60 min at 25°C, then 4°C overnight, read-out: TYK2 JH2 Binding IC50; for JAK1/TYK2 selectivity: ratio of JAK1 JH2 to TYK2 JH2 binding IC50. The essentials:
(§1)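 Competitive TR-FRET binding: compounds dispensed as an 11-point 3-fold dilution series, then Tb-labelled antibody and tracer added to the JH2 protein system. Incubated at 25°C, then overnight at 4°C; FRET signal read on Envision and IC50 (nM) derived.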

The target of a further series is T2, JAK1-JH2 domain (Homo sapiens, UniProt P23458).
T2 construct: JAK1-JH2 domain or TYK2-JH2 domain enzyme in assay buffer
The experiment in a line: Binding activity test for JH2 domain of JAK1 (Tb-antibody/tracer FRET). The note with it: JH2 domain enzyme; 60 min at 25°C, then 4°C overnight; read-out: JAK1 JH2 Binding IC50. Put shortly: as §1

For series [1], the system named is Ba/F3-FL-TYK2-P760L cells. Briefly: Anti-proliferative assay in engineered Ba/F3 cells (Cell-Titer Glo, 72 h). It counts as cell-based. The settings on record: 72 h compound treatment, concentration that causes 50% growth inhibition, read-out: Baf3-FL-T2P760L. Put shortly: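 Ba/F3 cells carrying Tel-dimerization/JAK kinase fusion, IL-3-independent, in RPMI-1640 + 10% FBS; 9-point 3-fold dilutions from 20 µM (0.1% DMSO) added after 24 h, 72 h at 37 °C. Viability by Cell-Titer Glo ATP luminescence; % inhibition versus DMSO cells, blank-corrected, giving IC50.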

A further series relates to TYK2 pathway. The experiment in a line: IFN-γ release in NK92 cells stimulated by IL-12 (ELISA). It counts as cell-based. The note with it: IL-12 2.5ng/mL stimulation 15hrs, IFN-γ in supernatant by ELISA. On the procedure: IFN-γ Release in NK92 Cells Stimulated by IL-12
Purpose: To evaluate the inhibition activity of TYK2 inhibitors in NK92 cells on TYK2 pathway through ELISA method.
Procedure: 1) Seeding NK92 cells into 96-well plate, cell density is 1.5E5 cells/well, 100uL/well; 2)Add prepared test articles into indicated wells, 50uL/well, and continue incubate for 1h, at 37°C; 3) After compound treatment, add 50uL/well IL-12 into indicated wells, final concentration of IL-12 is 2.5ng/mL; 4)Incubate cytokine stimulated cells at 37°C for another 15hrs in CO2 incubator; 5) After cytokine stimulation, transfer culture supernatant into a new plate and centrifuge for 5min at 350x g, and detect IFN-γ concentration in the supernatant with ELISA kit; 6) Data analysis with GrapdPad Prism6.0 software. Table 5. IC50 Values of Exemplary Compounds on TYK2 Pathway

A further series relates to pSTAT1. Briefly: Phosphorylation inhibition of STAT in human whole blood (IFN-alpha stimulated, flow cytometry). Type of series: cell-based. The note with it: T-cell, 20 min, IFN-alpha stimulation 20 mins, CD3 T cells, read-out: pSTAT1 inhibition in hWB (IC50). The essentials: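 Fresh human whole blood stimulated 20 min with human universal type I IFN-alpha, then fixed, permeabilised and stained for CD3 and pSTAT1 (Y701). pSTAT1 in T cells read by flow cytometry; IC50 from 4-parameter logistic fit.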
(In general: A flow cytometer gives signals particle by particle.)

Series [2] can be described thus: Microsomal metabolic stability assay. It counts as in vitro ADME. The settings on record: human, liver microsomes, pH 7.4, 0.5 mg/mL microsomal protein, 1 µM test article, 2 mM NADPH. Put shortly: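 Test or control compound (1 µM) incubated with microsomes (0.5 mg/mL protein) in 100 mM potassium phosphate pH 7.4, 1.0 mM EDTA at 37°C, started with NADPH regenerating system (2 mM NADPH). Sampled at 0, 5, 15, 30, 45 min, acetonitrile-quenched, LC/MS/MS. T1/2 from ln %remaining vs time slope; CLint = 0.693/T1/2 per mg protein/mL.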
A general note: Liver microsomes are vesicles of endoplasmic reticulum, rich in cytochrome P450 enzymes.

The nature of the next series: Kinetic solubility. It counts as physicochemical. The settings on record: phosphate buffer, pH 7.4, aqueous buffer, kinetic from dmso stock, 100 mM pH 7.4 phosphate buffer, 1% DMSO, room temperature, read-out: Kinetics Solubility_PBS7.4. The essentials: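 Compounds diluted from 10 mM/5 mM DMSO stocks into 100 mM phosphate buffer pH 7.4 (1% DMSO final), shaken 2 h at room temperature, then centrifuged. Dissolved compound in supernatant quantified by LC-MS/MS against a standard curve.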

In series [3] the test system is IFNa pSTAT1. The experiment in a line: Phosphorylation of STAT1 inhibition in HMC3 cells with HTRF assay. It counts as cell-based. The note with it: Homo sapiens, HMC3 microglia cells, 50ng/mL hINFα 1 hour, read-out: HTRF_HMC3 IC 50 (IFNa pSTAT1). How it is done: Seeding HMC3 cells into 96-well plate and incubate overnight. Pre-stimulation with recombinant human IFNα (Sino biological, H08Y), treat cells with compound with different concentration for 1hr. After compound treatment, stimulate cells with 50ng/mL hINFα for another 1 hour (for CCF-STTG1 cells IFNα induction time is 30 mins). After compound treatment and cytokine stimulation, dump old medium and lyse cells with supplemented lysis buffer provided by the HTRF kit (Revvity, 63ADK026PEG) for 30 min at room temperature under shaking. After homogenization by pipetting up and down, transfer 16 µL of cell lysate from the 96-well cell-culture plate to a small volume white 384-well plate, and then add 4 µL of pre-mixed two ready-to-use antibody working solution into each wells. Cover the plate with a plate sealer and incubate it overnight at room temperature. Read the fluorescence emission at two different wavelengths (665nm and 620nm) on microplate reader (Molecular Device, SpectraMax i3X). Collect data and analyzed with GraphPad Prism.
Background: TR-FRET usually uses a lanthanide donor and a delayed reading to cut background.

Series [4] concerns IFNa pSTAT1. Briefly: Phosphorylation of STAT1 inhibition in HMC3 cells by Jess. It counts as cell-based. The note with it: Homo sapiens; HMC3 microglia cells, 50ng/mL hINFα 1 hour, Jess western; read-out: Jess_HMC3 IC50 (IFNa pSTAT1). On the procedure:
Seeding HMC3 cells into 12-well plate and incubate overnight. Pre-stimulation with recombinant human IFNα (Sino biological, H08Y), treat cells with compound with different concentration for 1hr. After compound treatment, stimulate HMC3 cells with 50ng/mL hINFα for another 1 hour (for CCF-STTG1 cells IFNα induction time is 30 mins). And then wash cells with DPBS once gently and lyse cells with pre-cooled RIPA buffer (Sigma, R0278-500ML) for 30min on ice to harvest cells. Centrifuge cell lysate for 20 mins at 12000rpm with freezer centrifuge (Thermo Scientific, Heraeus Fresco 21) to extract protein. Prepare samples with Jess Simple Wes kit (SM-WO04) and then run western blot on Jess simple western system (Protein simple, JS-4631). Collect data and analyzed with GraphPad Prism.

Series [5] in a line: Brain pharmacokinetic studies in rats. The note with it: for half-life / Kp / AUC: rats, iv, solution; for Kp: read-out: Brain AUC/Systemic AUC; for brain exposure in Rats: result in words. Type of series: in vivo, Sprague-Dawley rats. How it is done:
Pharmacokinetic profiles of test articles were evaluated in fasted Sprague-Dawley rats. Different kinds of formulations were designed to ensure test articles fully dissolved and wouldn't precipitate in 1:10 SGF or FaSSIF dilution. Typically, Rats were dosed with 3 mg/kg and 5 mg/kg by intravenous injection and oral gavage, respectively. The animal was restrained manually at the designated time points, approximately 150 µL of blood sample was collected via jugular vein for serial bleeding into K2EDTA tubes. The blood samples were maintained in wet ice first and centrifuged to obtain plasma (2000g, 4°C, 5 min) within 30 minutes post sampling. Anesthetizing the rat with the Isoflurane vaporizer to 2%~3% and place its back on the operation table. Spread the animal limbs and pin the limbs on the operation table. Make a cut along the sternum about 4cm long, low enough to expose the sternum's end. Expose the heart and use a 25-gauge needle connected with a 20 mL syringe filled with 20 mL of cold saline to pierce the left ventricle. Maintain the placement of the needle, and slowly push the syringe plunger to wash the brain with saline. The perfusion will be finished within about 2 min and then take the brain out of the body carefully without damaging the tissue. Dry the tissue on filtrate paper, which should be placed on ice, and then weigh the brain tissue and store at -70 °C and analyzed by LC/MS/MS for quantification. PK parameter values, including, but not necessarily limited to, the maximum plasma concentrations (Cmax), and the area under the plasma concentration vs. time curve (AUC) from time zero to 24-hour (AUC0-24h) were determined using WinNonlin program. Table 13. Systemic Pharmacokinetic Parameters in Sprague-Dawley Rats

Setting [6] is: Sprague-Dawley, rat, brain, 3 mg/kg.
Where [7] appears, read: Sprague-Dawley, rat, brain, 2 mg/kg.

pIC50: −log10 of the molar value. ≈ marks a conversion by molar mass, not a printed value. Where two headings read alike, the source gives them in different places. A value given as a limit tells only on which side of the number the result lay.

T2 sequence (P23458 583-855 limits assumed): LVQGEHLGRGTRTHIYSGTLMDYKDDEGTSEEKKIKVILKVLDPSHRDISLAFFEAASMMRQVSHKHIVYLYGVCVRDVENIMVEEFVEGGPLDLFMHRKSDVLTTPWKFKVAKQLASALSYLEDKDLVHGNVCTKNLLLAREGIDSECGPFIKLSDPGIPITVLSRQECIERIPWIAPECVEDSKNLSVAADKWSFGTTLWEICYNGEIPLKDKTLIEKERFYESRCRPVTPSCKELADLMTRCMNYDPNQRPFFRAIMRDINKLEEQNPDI
T1 sequence (P29597 589-875 limits assumed): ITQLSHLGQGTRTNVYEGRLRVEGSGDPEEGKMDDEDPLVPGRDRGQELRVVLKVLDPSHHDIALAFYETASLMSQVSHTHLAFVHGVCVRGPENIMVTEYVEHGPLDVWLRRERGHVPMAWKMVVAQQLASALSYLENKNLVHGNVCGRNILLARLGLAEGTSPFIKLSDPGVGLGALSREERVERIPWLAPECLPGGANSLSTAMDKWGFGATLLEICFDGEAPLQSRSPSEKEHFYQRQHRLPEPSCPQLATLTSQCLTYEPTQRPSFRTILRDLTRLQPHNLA

For the compound `[2H]C([2H])([2H])NC(=O)c1cnc(NC(=O)[C@@H]2C[C@@H]2F)cc1Nc1cnn2ccc(C(O)C(F)(F)F)c(OC)c12` (single isomer, unassigned) [Example 15A, 6-((1S,2S)-2-fluorocyclopropane-1-carboxamido)-4-((4-methoxy-5-((S*)-2,2,2-trifluoro-1-hydroxyethyl)pyrazolo[1,5-a]pyridin-3-yl)amino)-N-(methyl-d3)nicotinamide], the pIC50 was 10.11 on TYK2-JH2 domain; 7.90 on JAK1-JH2 domain; 7.98 in series [1]; 7.80 in the series with TYK2 pathway; 7.46 in the series with pSTAT1. On TYK2-JH2 domain, the JAK1/TYK2 selectivity is 160.8. Besides, in [2] (read-out: Human LM Clint), the microsomal CLint at 1 µM was determined as 11.9 µL/min/mg. In addition, the half-life at 1 µM in series [2] (read-out: Human LM T1/2) was found to be 1.94 h. Besides, the solubility kinetic at 2 h in “Kinetic solubility” stood at 23.9 µM (≈ 11.9 µg/mL).
`CCn1nc(Nc2cc(NC(=O)C3CC3)ncc2C(=O)OC)c2c(OC)c(C(O)C(F)(F)F)ccc21` (single isomer, unassigned) [Example 70A, Methyl (S*)-6-(cyclopropanecarboxamido)-4-((1-ethyl-4-methoxy-5-(2,2,2-trifluoro-1-hydroxyethyl)-1H-indazol-3-yl)amino)nicotinate]: the pIC50 was 9.82 on TYK2-JH2 domain; 7.66 on JAK1-JH2 domain; 8.63 in series [1] (Mus musculus, BaF3, 72 h); 7.36 in the series on pSTAT1; greater than 10.21 with IFNa pSTAT1 [3]. Besides, the JAK1/TYK2 selectivity on TYK2-JH2 domain is listed as 145.12.
As to `CCC(F)(F)c1cnc(NC(=O)C2CC2)cc1Nc1nn(C)c2ccc(C(O)C(F)(F)F)c(OC)c12` (single isomer, unassigned) [Example 193A, (S*)-N-(5-(1,1-Difluoropropyl)-4-((4-methoxy-1-methyl-5-(2,2,2-trifluoro-1-hydroxyethyl)-1H-indazol-3-yl)amino)pyridin-2-yl)cyclopropanecarboxamide], the pIC50 on TYK2-JH2 domain was 9.38; in [1], 9.40; in the series on IFNa pSTAT1 [4], 8.37; with IFNa pSTAT1 [3], 9.09.
Turning to `COC(=O)c1cnc(NC(=O)C2CC2)cc1Nc1cnn2ccc([C@H](O)C(F)(F)F)c(OC)c12` [Example 26, Methyl (5)-6-(cyclopropanecarboxamido)-4-((4-methoxy-5-(2,2,2-trifluoro-1-hydroxyethyl)pyrazolo[1,5-a]pyridin-3-yl)amino)nicotinate], the pIC50 at TYK2-JH2 domain is 9.74; on JAK1-JH2 domain it was 7.21; in series [1] (Mus musculus, BaF3, 72 h), 7.45; in the series with TYK2 pathway, 7.75. In addition, the JAK1/TYK2 selectivity at TYK2-JH2 domain is listed as 338.1. The half-life was 1.99 h in [5] (setting [6]) and 1.53 h in series [5] (Sprague-Dawley, rat, systemic (plasma), 3 mg/kg). In addition, the Kp in series [5] (setting [6]) was determined as 0.11. Moreover, the AUC in series [5] (Sprague-Dawley, rat, systemic (plasma), 3 mg/kg, read-out: AUC) amounted to 1290 ng·h/mL; in series [5] (brain, 3 mg/kg) it was 140 ng·h/g. Also, the “brain exposure in Rats” value in series [5] is listed as “good brain exposure”.
Regarding `[2H]C([2H])([2H])CC(=O)c1cnc(NC(=O)C2CC2)cc1Nc1nn(C)c2ccc([C@H](O)C(F)(F)F)c(OC)c12` [Example 54A, (S)-N-(4-((4-methoxy-1-methyl-5-(2,2,2-trifluoro-1-hydroxyethyl)-1H-indazol-3-yl)amino)-5-(propanoyl-3,3,3-d3)pyridin-2-yl)cyclopropanecarboxamide], the pIC50 at TYK2-JH2 domain was 9.93; on JAK1-JH2 domain, 8.42; in [1] (Mus musculus, BaF3, 72 h) it was 9.24; with pSTAT1, 7.97; in the series on IFNa pSTAT1 [3] it was greater than 10.21. At TYK2-JH2 domain, the JAK1/TYK2 selectivity was 32.37. For the same compound, the half-life in series [5] (setting [7]) is 1.64 h; in series [5] (Sprague-Dawley, rat, systemic (plasma), 2 mg/kg) it was 1.7 h. For the same compound, the Kp in series [5] (setting [7]) was 0.18. Further, the AUC in [5] (Sprague-Dawley, rat, systemic (plasma), 2 mg/kg, read-out: AUC) came to 1060 ng·h/mL; in series [5] (brain, 2 mg/kg), 188 ng·h/g. The “brain exposure in Rats” value in series [5] was “good brain exposure”.
With `COCC(OC)c1ccc2c(c(Nc3cc(NC(=O)C4CC4)ncc3C(=O)OC)nn2C)c1OC` (stereo not drawn) [Example 159, Methyl 6-(cyclopropanecarbonylamino)-4-[[5-(1,2-dimethoxyethyl)-4-methoxy-1-methyl-indazol-3-yl]amino]pyridine-3-carboxylate], the pIC50 at TYK2-JH2 domain is 9.69; on JAK1-JH2 domain, 8.09; in series [1] (Mus musculus, BaF3, 72 h), 8.20; in the series on pSTAT1 it was 6.89; with IFNa pSTAT1 [3], 10.09. Also, the JAK1/TYK2 selectivity on TYK2-JH2 domain came to 40.45.
